Results on 22 compounds are retold here after patent US8349824B2, “Triazolopyridine compounds” (Hoffmann-La Roche Inc., priority 2010, dated 2013).

SMILES strings stand for the structures.

T1 sequence (Q9Y233 1-779 isoform Q9Y233-1): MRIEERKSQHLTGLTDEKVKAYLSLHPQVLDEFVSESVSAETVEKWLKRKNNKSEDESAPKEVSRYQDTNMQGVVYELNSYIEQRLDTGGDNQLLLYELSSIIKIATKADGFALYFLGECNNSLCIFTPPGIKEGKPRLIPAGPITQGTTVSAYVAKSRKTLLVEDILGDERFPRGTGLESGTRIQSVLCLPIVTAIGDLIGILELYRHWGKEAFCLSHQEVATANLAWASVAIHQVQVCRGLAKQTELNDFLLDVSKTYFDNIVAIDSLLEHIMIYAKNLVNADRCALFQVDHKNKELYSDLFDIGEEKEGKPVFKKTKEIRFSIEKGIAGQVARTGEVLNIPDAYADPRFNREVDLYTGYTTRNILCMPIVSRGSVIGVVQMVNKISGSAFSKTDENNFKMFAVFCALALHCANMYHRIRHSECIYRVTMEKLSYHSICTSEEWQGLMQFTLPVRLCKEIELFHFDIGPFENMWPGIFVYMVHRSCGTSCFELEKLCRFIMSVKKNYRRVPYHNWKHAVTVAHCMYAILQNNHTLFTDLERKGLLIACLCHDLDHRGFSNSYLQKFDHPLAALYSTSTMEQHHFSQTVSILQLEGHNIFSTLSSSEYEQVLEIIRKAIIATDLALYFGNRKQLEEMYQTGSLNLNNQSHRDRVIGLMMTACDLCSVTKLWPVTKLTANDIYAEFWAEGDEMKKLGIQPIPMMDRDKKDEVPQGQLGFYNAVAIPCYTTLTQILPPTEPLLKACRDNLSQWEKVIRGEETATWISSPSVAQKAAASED

The test addresses T1, human PDE10A full length (Homo sapiens, UniProt Q9Y233).
T1 construct: purchased Enzo Life Science, Lausen, Switzerland SE-534
Description: PDE10A Scintillation Proximity Assay (SPA), human PDE10A full length assay. The format is biochemical. Particulars: 50 nM cGMP + 50 nM [3H]-cGMP, 20 minutes at room temperature, read-out: PDE10A inhibition IC50. Here is the method:
The following test was carried out in order to determine the activity of the compounds of the present invention. PDE10 activity of the compounds of the present invention was determined using a Scintillation Proximity Assay (SPA)-based method similar to the one previously described (Fawcett, L. et al., Proc Natl Acad Sci USA (2000) 97(7):3702-3707).
The human PDE10A full length assay was performed in 96-well micro titer plates. The reaction mixture of 50 μl contained 20 mM HEPES pH=7.5/10 mM MgCl2/0.05 mg/ml BSA (Sigma cat. #A-7906), 50 nM cGMP (Sigma, cat. #G6129) and 50 nM [^3H]-cGMP (GE Healthcare, cat. #TRK392 S.A. 13.2Ci/mmol), 3.75 ng/well PDE10A enzyme (Enzo Life Science, Lausen, Switzerland cat #SE-534) with or without a specific test compound. A range of concentrations of the potential inhibitor was used to generate data for calculating the concentration of inhibitor resulting in 50% of the effect (e.g. IC50, the concentration of the competitor inhibiting PDE10A activity by 50%). Non-specific activity was tested without the enzyme. The reaction was initiated by the addition of the substrate solution (cGMP and [^3H]-cGMP) and allowed to progress for 20 minutes at room temperature. The reaction was terminated by adding 25 μl of YSi-SPA scintillation beads (GE Healthcare, cat. #RPNQ0150) in 18 mM zinc sulphate solution (stop reagent). After 1 h under shaking, the plate was centrifuged one minute at 170 g to allow beads to settle. Afterwards, radioactive counts were measured on a Perkin Elmer TopCount Scintillation plate reader.
In general terms: SPA uses beads or plates that emit light when radiolabelled molecules are held near them.
On to `COCCN(CCOC)C(=O)c1cnn(C)c1C(=O)Nc1ccn2nc(-c3ccccc3)nc2c1` [Example 6, N4,N4-bis(2-methoxyethyl)-1-methyl-N5-(2-phenyl-[1,2,4]triazolo[1,5-a]pyridin-7-yl)-1H-pyrazole-4,5-dicarboxamide], for which the IC50 was 0.43 nM. As for `Cn1ncc(C(=O)N2CCOCC2)c1C(=O)Nc1ccn2nc(-c3ccccc3)nc2c1` [Example 12, 1-Methyl-4-(morpholine-4-carbonyl)-N-(2-phenyl-[1,2,4]triazolo[1,5-a]pyridin-7-yl)-1H-pyrazole-5-carboxamide], the figure is 0.27 nM. In the case of `CN(CCF)C(=O)c1cnn(C)c1C(=O)Nc1ccn2nc(N3CCOCC3)nc2c1` [Example 21, N4-(2-Fluoroethyl)-N4,1-dimethyl-N5-(2-morpholino-[1,2,4]triazolo[1,5-a]pyridin-7-yl)-1H-pyrazole-4,5-dicarboxamide] it was 26.5 nM; in that of `CN(CCF)C(=O)c1cnn(C)c1C(=O)Nc1ccn2nc(-c3ccccc3)nc2c1` [Example 26, 2-Methyl-2H-pyrazole-3,4-dicarboxylic acid 4-[(2-fluoro-ethyl)-methyl-amide]3-[(2-phenyl-[1,2,4]triazolo[1,5-a]pyridin-7-yl)-amide]], 0.43 nM. In the case of `CC(C)OC(=O)c1cnn(C)c1C(=O)Nc1ccn2nc(-c3ccccc3)nc2c1` [Example 27, Isopropyl 1-methyl-5-(2-phenyl-[1,2,4]triazolo[1,5-a]pyridin-7-ylcarbamoyl)-1H-pyrazole-4-carboxylate] it was 7.9 nM. Turning to `Cn1ncc(C(=O)N2CCC2)c1C(=O)Nc1ccn2nc(C(=O)NCCC(F)(F)F)nc2c1` [Example 33, 7-(4-(Azetidine-1-carbonyl)-1-methyl-1H-pyrazole-5-carboxamido)-N-(3,3,3-trifluoropropyl)-[1,2,4]triazolo[1,5-a]pyridine-2-carboxamide], the IC50 worked out at 28.6 nM. Turning to `Cn1ncc(C(=O)N2CCCC2)c1C(=O)Nc1ccn2nc(N3CCOCC3)nc2c1` [Example 42, 1-Methyl-N-(2-morpholino-[1,2,4]triazolo[1,5-a]pyridin-7-yl)-4-(pyrrolidine-1-carbonyl)-1H-pyrazole-5-carboxamide], the half-inhibitory concentration (IC50) was 5.15 nM. As for `Cn1ncc(C(=O)N2CC(F)C2)c1C(=O)Nc1ccn2nc(N3CCOCC3)nc2c1` [Example 43, 4-(3-Fluoroazetidine-1-carbonyl)-1-methyl-N-(2-morpholino-[1,2,4]triazolo[1,5-a]pyridin-7-yl)-1H-pyrazole-5-carboxamide], the figure is 3.77 nM; as for `CN(C(=O)c1cnn(C)c1C(=O)Nc1ccn2nc(N3CCOCC3)nc2c1)C1CC1` [Example 53, N4-cyclopropyl-N4,1-dimethyl-N5-(2-morpholino-[1,2,4]triazolo[1,5-a]pyridin-7-yl)-1H-pyrazole-4,5-dicarboxamide], 1.12 nM. With `CN(CC(F)(F)F)C(=O)c1cnn(C)c1C(=O)Nc1ccn2nc(N3CCOCC3)nc2c1` [Example 54, 2-Methyl-2H-pyrazole-3,4-dicarboxylic acid 4-[methyl-(2,2,2-trifluoro-ethyl)-amide]3-[(2-morpholin-4-yl-[1,2,4]triazolo[1,5-a]pyridin-7-yl)-amide]], the IC50 came to 80.5 nM. In the case of `CN(C(=O)c1cnn(C)c1C(=O)Nc1ccn2nc(-c3cccnc3)nc2c1)C1CC1` [Example 55, 2-Methyl-2H-pyrazole-3,4-dicarboxylic acid 4-(cyclopropyl-methyl-amide)3-[(2-pyridin-3-yl-[1,2,4]triazolo[1,5-a]pyridin-7-yl)-amide]] it was 0.45 nM; in that of `CN(C)C(=O)c1nc2cc(NC(=O)c3c(C(=O)N4CCC4)cnn3C)ccn2n1` [Example 62, 7-{[4-(Azetidine-1-carbonyl)-2-methyl-2H-pyrazole-3-carbonyl]-amino}-[1,2,4]triazolo[1,5-a]pyridine-2-carboxylic acid dimethylamide], 112 nM.

Regarding `COc1ccccc1-c1nc2cc(NC(=O)c3c(C(=O)N4CCOCC4)cnn3C)ccn2n1` [Example 69, 2-Methyl-4-(morpholine-4-carbonyl)-2H-pyrazole-3-carboxylic acid [2-(2-methoxy-phenyl)-[1,2,4]triazolo[1,5-a]pyridin-7-yl]-amide], the IC50 stood at 0.68 nM. As for `COc1cccc(-c2nc3cc(NC(=O)c4c(C(=O)N5CCC5)cnn4C)ccn3n2)c1` [Example 75, 4-(Azetidine-1-carbonyl)-2-methyl-2H-pyrazole-3-carboxylic acid [2-(3-methoxy-phenyl)-[1,2,4]triazolo[1,5-a]pyridin-7-yl]-amide], the figure is 0.31 nM; as for `COc1cccc(-c2nc3cc(NC(=O)c4c(C(=O)N5CCOCC5)cnn4C)ccn3n2)c1` [Example 76, 2-Methyl-4-(morpholine-4-carbonyl)-2H-pyrazole-3-carboxylic acid [2-(3-methoxy-phenyl)-[1,2,4]triazolo[1,5-a]pyridin-7-yl]-amide], 5.15 nM; as for `COCCN(C)C(=O)c1cnn(C)c1C(=O)Nc1ccn2nc(-c3cccc(OC)c3)nc2c1` [Example 77, 2-Methyl-2H-pyrazole-3,4-dicarboxylic acid 4-[(2-methoxy-ethyl)-methyl-amide]3-{[2-(3-methoxy-phenyl)-[1,2,4]triazolo[1,5-a]pyridin-7-yl]-amide}], 0.57 nM.

As for `COc1cccc(-c2nc3cc(NC(=O)c4c(C(=O)N(C)C)cnn4C)ccn3n2)c1` [Example 78, 2-Methyl-2H-pyrazole-3,4-dicarboxylic acid 4-dimethylamide 3-{[2-(3-methoxy-phenyl)[1,2,4]triazolo[1,5-a]pyridin-7-yl]-amide}], the IC50 worked out at 0.32 nM.

Turning to `CCN(C)C(=O)c1cnn(C)c1C(=O)Nc1ccn2nc(-c3cccc(OC)c3)nc2c1` [Example 79, 2-Methyl-2H-pyrazole-3,4-dicarboxylic acid 4-(ethyl-methyl-amide)3-{[2-(3-methoxy-phenyl)-[1,2,4]triazolo[1,5-a]pyridin-7-yl]-amide}], the IC50 was 1.73 nM. As for `Cn1ncc(C(=O)N2CCOCC2)c1C(=O)Nc1ccn2nc(-c3cccc(O)c3)nc2c1` [Example 80, 2-Methyl-4-(morpholine-4-carbonyl)-2H-pyrazole-3-carboxylic acid [2-(3-hydroxy-phenyl)-[1,2,4]triazolo[1,5-a]pyridin-7-yl]-amide], the figure is 0.41 nM. Turning to `Cn1ncc(C(=O)N2CCOCC2)c1C(=O)Nc1ccn2nc(-c3cccc(OCCF)c3)nc2c1` [Example 81, 2-Methyl-4-(morpholine-4-carbonyl)-2H-pyrazole-3-carboxylic acid {2-[3-(2-fluoro-ethoxy)-phenyl]-[1,2,4]triazolo[1,5-a]pyridin-7-yl}-amide], the IC50 is 0.59 nM. As for `Cn1ncc(C(=O)N2CCOCC2)c1C(=O)Nc1ccn2nc(-c3cccc(OCF)c3)nc2c1` [Example 82, 2-Methyl-4-(morpholine-4-carbonyl)-2H-pyrazole-3-carboxylic acid [2-(3-fluoromethoxy-phenyl)-[1,2,4]triazolo[1,5-a]pyridin-7-yl]-amide], the figure is 0.78 nM; as for `CCN(C)C(=O)c1cnn(C)c1C(=O)Nc1ccn2nc(-c3cccc(OCCF)c3)nc2c1` [Example 83, 2-Methyl-2H-pyrazole-3,4-dicarboxylic acid 4-(ethyl-methyl-amide)3-({2-[3-(2-fluoro-ethoxy)-phenyl]-[1,2,4]triazolo[1,5-a]pyridin-7-yl}-amide)], 0.63 nM.

The IC50 is the midpoint of a concentration-inhibition curve.
